In publication PMC7111419 (European Journal of Medicinal Chemistry, 2019):
pIC50, pKi: −log10 of the molar value. Where two headings read alike, the source gives them in different places.

Legend:
[1] = system: male Wister rats; conditions: cited from earlier work; for tumour size: from 2 cm
[2] = system: bacterial βGLU; conditions: cited from earlier work
[3] = system: bovine liver βGLU; conditions: cited from earlier work
[4] = system: βGLU; conditions: cited from earlier work
[5] = system: whole human gut bacterial βGLU (eight bacterial isolates); conditions: cited from earlier work
[6] = system: male ICR mice; conditions: cited from earlier work
[7] = system: rat liver βGLU; conditions: cited from earlier work
[8] = system: E. coli βGLU; conditions: cited from earlier work
[9] = system: male Wistar rats; conditions: cited from earlier work
[10] = system: E. coli βGLU; experiment: E. coli βGLU inhibition; type: biochemical
[11] = system: βGLU; type: biochemical
[12] = system: bacterial βGLU; type: biochemical
[13] = system: 3T3 cells; conditions: cited from earlier work
[14] = system: newborns; conditions: cited from earlier work
[15] = system: male Fischer rats; conditions: cited from earlier work; for reduction of aberrant crypt foci formation: 5 weeks, vs azoxymethane-controls
[16] = cited from earlier work
[17] = system: BALB/cJ mice; conditions: 10 μg twice daily with 50 mg/kg CPT-11 once daily; cited from earlier work
[18] = […] test concentration, US 7,294,330 B2

Molecule: O=c1cc(-c2ccc(O)c(O)c2)oc2cc(O)cc(O)c12 [Compound 11, Luteolin]
- bacterial βGLU activity ([1]; 0.1, 0.2 or 0.3 mg/kg body weight/day p.o., 30 weeks, vs DMH-controls): significantly reduced
- reduction in tumour incidence [1]: up to 90%
- tumour size ([1]; initiation stage): 0.25 cm
- tumour size ([1]; post-initiation stage): 0.50 cm

Molecule: O=S(=O)(NCc1cccc(Cl)c1)c1cc(Cl)c(Oc2cccc(N3CCNCC3)c2)s1 [Compound 193]
- IC50 ([2]; US 9617.239 B2): equipotent
- pIC50 ([2]; US 9617.239 B2, listed as C00012): 7.70

Molecule: NC[C@@H]1C[C@@H]2[C@H](O)[C@@H](O)[C@H](O)[C@@H](C(=O)O)N2C(=O)O1 [Compound 71]
- pIC50 [3]: 3.66

Molecule: C=CCc1ccc(O)c(OC)c1 [Compound 39, eugenol]
- IC50 [4]: 616.68 µg/mL

Molecule: CC(C)=CC[C@]12Oc3cc(O)c([C@H]4C=C(C)C[C@H](c5ccc(O)cc5O)[C@H]4C(=O)c4ccc(O)cc4O)c(O)c3C(=O)[C@@]1(O)Oc1cc(O)ccc12 [Compound 20, Sanggenon C]
- pIC50 [5]: 4.90
- inhibition [5]: > 70%

Molecule: COc1c(O[C@@H]2O[C@H](CO)[C@@H](O)[C@H](O)[C@H]2O)cc2occ(-c3ccc(O)cc3)c(=O)c2c1O [Compound 43, tectoridin]
- hepatoprotection ([6]; 100 mg/kg intraperitoneal): failure to provide desired hepatoprotection
- serum AST, ALT and LDH levels relative to CCl4-treated controls ([6]; 100 mg/kg oral): significantly lowering
- presence in serum ([6]; 250 mg/kg oral, only tectorigenin detected): absence in the serum

Molecule: O=c1c(-c2ccc(O)cc2)coc2cc(O)ccc12 [Compound 41, daidzein]
- IC50 [7]: 500 µg/mL
- IC50 [8]: 410 µg/mL

Molecule: O=c1c(-c2ccc(O)cc2)coc2cc(O[C@@H]3O[C@H](CO)[C@@H](O)[C@H](O)[C@H]3O)ccc12 [daidzin]
- IC50 [7]: inactive
- IC50 [8]: inactive

Molecule: CC1(C)[C@@H](O)CC[C@]2(C)[C@H]3C(=O)C=C4[C@@H]5C[C@@](C)(C(=O)O)CC[C@]5(C)CC[C@@]4(C)[C@]3(C)CC[C@@H]12 [Compound 44, 18β-glycyrrhetinic acid]
- pIC50 [7]: 4.37
- AST, ALT and LDH levels compared to CCl4-controls ([9]; 100 mg/kg intraperitoneal): significant reduction
- pIC50 [8]: 3.29

Molecule: COc1ccc(-c2nc(O)c3ccccc3n2)cc1OC [Compound 160]
- fold potency vs D-SAL [10]: 76 fold

Molecule: COc1ccccc1-c1nnc(-c2ccc(C(=O)NNS(=O)(=O)c3cc(Cl)c(Cl)cc3Cl)cc2)o1 [Compound 116]
- pIC50 [4]: 5.85

Molecule: NCC(=O)[O-].NCC(=O)[O-].[Zn+2] [zinc glycinate]
- inhibition of E. coli βGLU [8, 18]: 99%

Molecule: O=C(N/N=C/c1ccccc1F)c1cc2cc(Cl)ccc2[nH]1 [Compound 129]
- fold stronger than corresponding oxadiazole variant of compound 115 library [11]: 43 fold

Molecule: tectorigenin [Compound 42]
- IC50 [4]: 300 µg/mL
- serum AST, ALT and LDH levels relative to CCl4-treated controls ([6]; 50 mg/kg intraperitoneal pre-treatment): significantly lowering

Molecule: O=C(/C=C/c1ccc(O)cc1)O[C@@H]1O[C@H](Oc2cc(O)c3c(=O)cc(-c4ccc(O)cc4)oc3c2)[C@@H](O)[C@H](O)[C@H]1O [Compound 148]
- fold potency vs D-SAL [12]: 10 fold
- cytotoxicity [13]: totally non-cytotoxic

Molecule: CC(C)=CCc1c(-c2ccc(O)cc2O)oc2c([C@H]3C=C(C)C[C@@H](c4ccc(O)cc4O)[C@@H]3C(=O)c3ccc(O)cc3O)c(O)cc(O)c2c1=O [Compound 21, Kuwanon G]
- pIC50 [5]: 5.13
- inhibition [5]: > 70%

Molecule: O=C(O)[C@H]1NC[C@H](O)[C@@H](O)[C@@H]1O [Compound 94]
- selectivity for bovine liver βGLU [3]: 3 fold

Molecule: C[C@]12C=CC(=O)C=C1CC[C@@H]1[C@@H]2CC[C@@]2(C)[C@H]1CC[C@]2(C)O [dianabol, reference compound]
- IC50 [4]: inactive

Molecule: O=c1c(O)c(-c2ccc(O)cc2)oc2cc(O)cc(O)c12 [Compound 19, Kaempferol]
- pIC50 [2]: 4.44

Molecule: C[C@]12C=C/C(=N\O)C=C1CC[C@H]1[C@@H]3[C@@H](O)C[C@](C)(O)[C@@]3(C)CC[C@@H]12 [Compound 49]
- fold superior than Z-isomer [11]: 2 fold

Molecule: NC[C@@H]1OC(=O)N2[C@H]1[C@H](O)[C@@H](O)[C@H](O)[C@H]2C(=O)O [Compound 73]
- pIC50 [3]: 3.59

Molecule: O=C([O-])[C@H](O)[C@@H](O)[C@H](O)[C@H](O)CO.O=C([O-])[C@H](O)[C@@H](O)[C@H](O)[C@H](O)CO.[Zn+2] [zinc gluconate]
- inhibition of E. coli βGLU [8, 18]: 97%

Molecule: Oc1cccc(C(c2c[nH]c3cc(Br)ccc23)c2c[nH]c3ccc(Br)cc23)c1O (stereo not shown) [Compound 133]
- cytotoxicity [13]: moderate cytotoxicity

Molecule: O=C(Cn1c(-c2ccccn2)nc2ccccc21)c1ccc(F)cc1 [Compound 4-F]
- pIC50 [4]: 4.58

Molecule: COc1ccc(C[C@@H]2CCC[C@@H]3[C@H](O)[C@@H](O)[C@H](CO)N23)cc1 [Compound 74]
- inhibition ([8]; 1 mM): < 50%

Molecule: O=C(Cn1c(-c2ccccn2)nc2ccccc21)c1ccccc1[N+](=O)[O-] [Compound 112]
- pIC50 [4]: 5.39

Molecule: Oc1ccccc1-c1nc2cc(Cl)cc(Cl)c2[nH]1 [Compound 111]
- fold potency vs D-SAL [11]: 11 fold

Molecule: CCCC[C@H]1NC[C@@H](O)[C@@H](O)[C@H](O)[C@H]1O [Compound 85]
- pIC50 [8]: 3.58

Molecule: N[C@@H](CC(=O)O)C(=O)O [Compound 10, L-aspartic acid]
- inhibition of βGLU ([4]; 100 μM): ~86%
- transcutaneous bilirubin levels, lower than control ([14]; 6 doses, 180 mg/5 ml of water/day, first week of life): 25%
- adverse effects [14]: no adverse effects
- fold more potent than D-isomer [11]: 100 fold

Molecule: CC(=O)O[C@@H]1C(=O)O[C@H]2[C@@H]1OC(=O)[C@@H]2OC(C)=O [Compound 6, 2,5-di-O-acetyl-D-glucaro-1,4:6,3-dilactone]
- reduction of aberrant crypt foci formation ([15]; 0.5% in diet): over 48.6%
- reduction of aberrant crypt foci formation ([15]; 2% in diet): > 55.3%
- inhibition of colon carcinogenesis ([15]; post-initiation phase, 32 weeks treatment (D-GL: 2%)): over 70%

Molecule: O=C(N/N=C/c1c(O)cc(O)cc1O)c1cc2cc(Cl)ccc2[nH]1 [Compound 128]
- fold stronger than corresponding oxadiazole variant of compound 115 library [11]: 3 fold

Molecule: COC(=O)[C@]1(Cc2ccc(O)c(C=O)c2)OC(=O)C(O)=C1c1ccc(O)cc1 [Compound 8]
- fold stronger potency than prenylated isomer (9) [11]: 16 fold
- fold superior potency compared to D-SAL [11]: 8 fold

Molecule: O=C(O)[C@@H]1[C@@H](O)[C@H](O)[C@@]2(O)CC[C@@H]1N2 [Compound 77, uronic-noeurostegine]
- selectivity for E. coli βGLU over bovine liver βGLU [10]: 38 fold
- pKi [8]: 7.22

Molecule: O=c1c2cc(O)c(O)cc2oc2cc(O)c([C@@H]3O[C@H](CO)[C@@H](O)[C@H](O)[C@H]3O)c(O)c12 [Compound 40, mangiferin]
- pIC50 [4]: 4.42

Molecule: CC1(C)[C@@H](O[C@H]2O[C@H](C(=O)O)[C@@H](O)[C@H](O)[C@H]2O[C@@H]2O[C@H](C(=O)O)[C@@H](O)[C@H](O)[C@H]2O)CC[C@]2(C)[C@H]3C(=O)C=C4[C@@H]5C[C@@](C)(C(=O)O)CC[C@]5(C)CC[C@@]4(C)[C@]3(C)CC[C@@H]12 [Compound 45, glycyrrhizinic acid]
- AST, ALT and LDH levels compared to CCl4-controls ([9]; 100 mg/kg oral): significant reduction
- hepatoprotection ([9]; intraperitoneal administration): did not provide hepatoprotection

Molecule: CCCCCCO[C@H]1C[C@](Cl)(CO)[C@@H](O)[C@H](O)[C@H]1NC(C)=O [Compound 75]
- pIC50 [8]: 3.77

Molecule: O=c1c(-c2ccc(O)cc2)coc2c([C@@H]3O[C@H](CO)[C@@H](O)[C@H](O)[C@H]3O)c(O)ccc12 [puerarin]
- IC50 [7]: inactive
- IC50 [8]: inactive

Molecule: CCOc1ccc(NC(=S)N(CCO)Cc2cc3cc(C)cc(C)c3[nH]c2=O)cc1 [Compound 151]
- half-life [16]: < 1 h
- CPT-11 induced diarrhoea [17]: alleviated Irinotecan (CPT-11) induced diarrhoea

Molecule: O=C1CCCCCC/C=C/CCCCCCC1 [Compound 191]
- inhibition of E. coli βGLU ([8]; 0.001 wt%): 95.8%
- inhibition of E. coli βGLU ([8]; 0.1 wt% in dipropylene glycol): 100%
